Values of other authors as cited in patent US20240066044A1, “METHODS AND COMPOSITIONS FOR INCREASING NAD+ METABOLOME IN HEALTHY MIDDLE-AGED POPULATION” (Bioenergy Life Science, Inc., priority 2021, published 2024).
Read-outs that look alike come from different tables or passages of the source.

NC(=O)c1cccnc1 [NAM, nicotinamide]
daily tolerable upper dietary intake (Canada): 500 mg
daily tolerable upper dietary intake (EU): 900 mg
daily tolerable upper dietary intake (Japan): 5 mg/kg
doses at which NAM is ineffective for boosting NAD+ (NAD+): below 90 mg per day
